Patent publication US20260015350A1, “AZAQUINAZOLINE PAN-KRAS INHIBITORS” (Mirati Therapeutics, Inc., priority 2022, published 2026)

Columns and labels:
KRas^G12V = target: T1, KRas^G12V (Homo sapiens, UniProt P01116, G12V); assay: KRas binding assay (TR-FRET tracer displacement), KRas G12V
T1 construct: Biotinylated KRas (corresponding to amino acids 1-169, produced at Accelegan Inc.); biotin (biotinylated); purchased Accelegan Inc

[1] = system: KRas-mediated phosphorylation of ERK in H727 cells; assay: Inhibition of KRas-mediated phosphorylation of ERK (Cisbio HTRF pERK), H727 cells; assay type: cell-based; details: Homo sapiens; for IC50: NCI-H727, H727 cells, HTRF pERK
How it was run: (§1)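 Cells were seeded at 6,000 per well and treated for 3 hrs with compound in a 10-dose, 3-fold series from 10 uM (0.8% final DMSO), with 0.2 uM Trametinib as Min control. Lysates made at 4° C over 40 mins were incubated 2 hrs at room temperature with d2- and Cryptate-labelled antibodies, then read by HTRF.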

KRas^G12D = target: T2, KRas^G12D (Homo sapiens, UniProt P01116, G12D); assay: KRas binding assay (TR-FRET tracer displacement), KRas G12D
T2 construct: Biotinylated KRas (corresponding to amino acids 1-169, produced at Accelegan Inc.); biotin (biotinylated); purchased Accelegan Inc

KRas^G12R = target: T3, KRas^G12R (Homo sapiens, UniProt P01116, G12R); assay: KRas binding assay (TR-FRET tracer displacement), KRas G12R
T3 construct: Biotinylated KRas (corresponding to amino acids 1-169, produced at Accelegan Inc.); biotin (biotinylated); purchased Accelegan Inc

[2] = system: KRas-mediated phosphorylation of ERK in AsPC-1 cells; assay: Inhibition of KRas-mediated phosphorylation of ERK (Cisbio HTRF pERK), AsPC-1 cells; assay type: cell-based; details: Homo sapiens; for IC50: ASPC1, AsPC-1 cells, HTRF pERK
How it was run: as §1

T3 sequence (P01116 1-169 isoform P01116-2 G12R): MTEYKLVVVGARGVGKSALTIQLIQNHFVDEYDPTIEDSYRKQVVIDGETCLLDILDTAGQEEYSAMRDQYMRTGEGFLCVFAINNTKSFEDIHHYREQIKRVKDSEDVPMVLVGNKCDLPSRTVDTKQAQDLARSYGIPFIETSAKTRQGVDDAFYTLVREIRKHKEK
T2 sequence (P01116 1-169 isoform P01116-2 G12D): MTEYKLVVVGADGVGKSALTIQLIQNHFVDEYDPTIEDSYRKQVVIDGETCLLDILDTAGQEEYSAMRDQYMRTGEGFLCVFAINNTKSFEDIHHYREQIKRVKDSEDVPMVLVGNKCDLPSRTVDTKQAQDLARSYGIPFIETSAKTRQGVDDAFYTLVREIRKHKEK
T1 sequence (P01116 1-169 isoform P01116-2 G12V): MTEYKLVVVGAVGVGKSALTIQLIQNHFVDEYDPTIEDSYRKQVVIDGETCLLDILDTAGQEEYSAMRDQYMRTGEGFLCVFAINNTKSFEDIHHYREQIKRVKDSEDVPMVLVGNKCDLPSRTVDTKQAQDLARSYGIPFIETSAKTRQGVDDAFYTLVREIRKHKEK

IC50 (KRas^G12V) [nM]	IC50 [1] [nM]	IC50 (KRas^G12D) [nM]	IC50 (KRas^G12R) [nM]	IC50 [2] [nM]	Compound	inhibition at 0.1 µM ([1]; NCI-H727, 3 h, single point, 100 nM compound, 3 hrs, H727 cells) [%]	inhibition at 0.1 µM ([2]; ASPC1, 3 h, single point, 100 nM compound, 3 hrs, AsPC-1 cells) [%]
40	1390	125	51	2280	CCc1c(F)ccc2cc(O)cc(-c3ncc4c(N5CCCC(S(=O)(=O)C(F)F)C5)nc(OC[C@@]56CCCN5C[C@H](F)C6)nc4c3F)c12 (stereo partly drawn) [Example 652, 4-(4-(3-((difluoromethyl)sulfonyl)piperidin-1-yl)-8-fluoro-2-(((2R,7aS)-2-fluorotetrahydro-1H-pyrrolizin-7a(5H)-yl)methoxy)pyrido[4,3-d]pyrimidin-7-yl)-5-ethyl-6-fluoronaphthalen-2-ol]		
25	1790	19	18	1410	CCc1c(F)ccc2cc(O)cc(-c3ncc4c(N5CCCC6(C5)CN(S(C)(=O)=O)C6)nc(OC[C@@]56CCCN5C[C@H](F)C6)nc4c3F)c12 [Example 654, 5-ethyl-6-fluoro-4-(8-fluoro-2-(((2R,7aS)-2-fluorohexahydro-1H-pyrrolizin-7a-yl)methoxy)-4-(2-(methylsulfonyl)-2,6-diazaspiro[3.5]nonan-6-yl)pyrido[4,3-d]pyrimidin-7-yl)naphthalen-2-ol]		
291	> 10000	2880	633	> 10000	CCc1c(F)ccc2cc(O)cc(-c3ncc4c(N5CCC(N6CCCCS6(=O)=O)C5)nc(OC[C@@]56CCCN5C[C@H](F)C6)nc4c3F)c12 (stereo partly drawn) [Example 655, 2-(1-(7-(8-ethyl-7-fluoro-3-hydroxynaphthalen-1-yl)-8-fluoro-2-(((2R,7aS)-2-fluorotetrahydro-1H-pyrrolizin-7a(5H)-yl)methoxy)pyrido[4,3-d]pyrimidin-4-yl)pyrrolidin-3-yl)-1,2-thiazinane 1,1-dioxide]		
582	> 10000	462	1610	> 10000	CCc1c(F)ccc2cc(O)cc(-c3ncc4c(N5CCC(N6C(=O)OC7CNCC76)CC5)nc(OC[C@@]56CCCN5C[C@H](F)C6)nc4c3F)c12 (stereo partly drawn) [Example 659, 3-(1-(7-(8-ethyl-7-fluoro-3-hydroxynaphthalen-1-yl)-8-fluoro-2-(((2R,7aS)-2-fluorotetrahydro-1H-pyrrolizin-7a(5H)-yl)methoxy)pyrido[4,3-d]pyrimidin-4-yl)piperidin-4-yl)hexahydro-2H-pyrrolo[3,4-d]oxazol-2-one]		
1740	> 10000	680	699	> 10000	CCc1c(F)ccc2cc(O)cc(-c3ncc4c(N5CCCn6nc(S(N)(=O)=O)cc6C5)nc(OC[C@@]56CCCN5C[C@H](F)C6)nc4c3F)c12 [Example 661, 5-(7-(8-ethyl-7-fluoro-3-hydroxynaphthalen-1-yl)-8-fluoro-2-(((2R,7aS)-2-fluorohexahydro-1H-pyrrolizin-7a-yl)methoxy)pyrido[4,3-d]pyrimidin-4-yl)-5,6,7,8-tetrahydro-4H-pyrazolo[1,5-a][1,4]diazepine-2-sulfonamide]		
203	6050	445	323	6150	CCc1c(F)ccc2cc(O)cc(-c3ncc4c(N5CCOCC6(CCS(=O)(=O)CC6)C5)nc(OC[C@@]56CCCN5C[C@H](F)C6)nc4c3F)c12 [Example 667, 11-(7-(8-ethyl-7-fluoro-3-hydroxynaphthalen-1-yl)-8-fluoro-2-(((2R,7aS)-2-fluorohexahydro-1H-pyrrolizin-7a-yl)methoxy)pyrido[4,3-d]pyrimidin-4-yl)-8-oxa-3-thia-11-azaspiro[5.6]dodecane 3,3-dioxide]		

More lines, now with the values behind:

Compound	IC50 (KRas^G12V) [nM]	IC50 [1] [nM]	IC50 (KRas^G12D) [nM]	IC50 (KRas^G12R) [nM]	IC50 [2] [nM]	inhibition at 0.1 µM ([1]; NCI-H727, 3 h, single point, 100 nM compound, 3 hrs, H727 cells) [%]	inhibition at 0.1 µM ([2]; ASPC1, 3 h, single point, 100 nM compound, 3 hrs, AsPC-1 cells) [%]
CCc1c(F)ccc2cc(O)cc(-c3ncc4c(SCc5cc(C(=O)N(C)C)nn5C)nc(OC[C@@]56CCCN5C[C@H](F)C6)nc4c3F)c12 [Example 653, 5-(((7-(8-ethyl-7-fluoro-3-hydroxynaphthalen-1-yl)-8-fluoro-2-(((2R,7aS)-2-fluorohexahydro-1H-pyrrolizin-7a-yl)methoxy)pyrido[4,3-d]pyrimidin-4-yl)thio)methyl)-N,N,1-trimethyl-1H-pyrazole-3-carboxamide]	20	> 10000	123	16	> 10000		
CCc1c(F)ccc2cc(O)cc(-c3ncc4c(N5C[C@@H]6[C@@H](CS(N)(=O)=O)NC(=O)[C@@H]6C5)nc(OC[C@@]56CCCN5C[C@H](F)C6)nc4c3F)c12 [Example 665, 1-((1S,3aS,6aR)-5-(7-(8-ethyl-7-fluoro-3-hydroxynaphthalen-1-yl)-8-fluoro-2-(((2R,7aS)-2-fluorotetrahydro-1H-pyrrolizin-7a(5H)-yl)methoxy)pyrido[4,3-d]pyrimidin-4-yl)-3-oxooctahydropyrrolo[3,4-c]pyrrol-1-yl)methanesulfonamide]	966	3120	1980	1250	1240		
CCc1c(F)ccc2cc(O)cc(-c3ncc4c(NCc5cc(C(=O)N(C)C)n(CCC#N)n5)nc(OC[C@@]56CCCN5C[C@H](F)C6)nc4c3F)c12 [Example 668, 1-(2-cyanoethyl)-3-(((7-(8-ethyl-7-fluoro-3-hydroxynaphthalen-1-yl)-8-fluoro-2-(((2R,7aS)-2-fluorohexahydro-1H-pyrrolizin-7a-yl)methoxy)pyrido[4,3-d]pyrimidin-4-yl)amino)methyl)-N,N-dimethyl-1H-pyrazole-5-carboxamide]	12	> 10000	34	16	> 10000		
CCc1c(F)ccc2cc(O)cc(-c3ncc4c(NCc5cn(C(=O)N(C)C)nc5NC(C)=O)nc(OC[C@@]56CCCN5C[C@H](F)C6)nc4c3F)c12 [Example 675, 3-acetamido-4-(((7-(8-ethyl-7-fluoro-3-hydroxynaphthalen-1-yl)-8-fluoro-2-(((2R,7aS)-2-fluorohexahydro-1H-pyrrolizin-7a-yl)methoxy)pyrido[4,3-d]pyrimidin-4-yl)amino)methyl)-N,N-dimethyl-1H-pyrazole-1-carboxamide]	3	2040	32	< 2	9490		
CCc1c(F)ccc2cc(O)cc(-c3ncc4c(NCc5cc(C(=O)N(C)C)nn5C5CCC5O)nc(OC[C@@]56CCCN5C[C@H](F)C6)nc4c3F)c12 (stereo partly drawn) [Example 677, 5-(((7-(8-ethyl-7-fluoro-3-hydroxynaphthalen-1-yl)-8-fluoro-2-(((2R,7aS)-2-fluorotetrahydro-1H-pyrrolizin-7a(5H)-yl)methoxy)pyrido[4,3-d]pyrimidin-4-yl)amino)methyl)-1-(2-hydroxycyclobutyl)-N,N-dimethyl-1H-pyrazole-3-carboxamide]	< 2	4580	13	< 2		2	-8
CCc1c(F)ccc2cc(O)cc(-c3ncc4c(NCc5cc(C(=O)N(C)C)nn5[C@H]5C[C@@H](O)C5)nc(OC[C@@]56CCCN5C[C@H](F)C6)nc4c3F)c12 [Example 678, 5-(((7-(8-ethyl-7-fluoro-3-hydroxynaphthalen-1-yl)-8-fluoro-2-(((2R,7aS)-2-fluorohexahydro-1H-pyrrolizin-7a-yl)methoxy)pyrido[4,3-d]pyrimidin-4-yl)amino)methyl)-1-(cis-3-hydroxycyclobutyl)-N,N-dimethyl-1H-pyrazole-3-carboxamide]	11	> 10000	89	16	> 10000		
CCc1c(F)ccc2cc(O)cc(-c3ncc4c(N5CCCn6nc(C(=O)N(C)CCO)cc6C5)nc(OC[C@@]56CCCN5C[C@H](F)C6)nc4c3F)c12 [Example 679, 5-(7-(8-ethyl-7-fluoro-3-hydroxynaphthalen-1-yl)-8-fluoro-2-(((2R,7aS)-2-fluorohexahydro-1H-pyrrolizin-7a-yl)methoxy)pyrido[4,3-d]pyrimidin-4-yl)-N-(2-hydroxyethyl)-N-methyl-5,6,7,8-tetrahydro-4H-pyrazolo[1,5-a][1,4]diazepine-2-carboxamide]	105	9490	124	190	> 10000		
CCc1c(F)ccc2cc(O)cc(-c3ncc4c(NCc5cc(C(=O)N(C)C)n([C@H]6C[C@H](O)C6)n5)nc(OC[C@@]56CCCN5C[C@H](F)C6)nc4c3F)c12 [Example 680, 3-(((7-(8-ethyl-7-fluoro-3-hydroxynaphthalen-1-yl)-8-fluoro-2-(((2R,7aS)-2-fluorohexahydro-1H-pyrrolizin-7a-yl)methoxy)pyrido[4,3-d]pyrimidin-4-yl)amino)methyl)-1-(trans-3-hydroxycyclobutyl)-N,N-dimethyl-1H-pyrazole-5-carboxamide]	43	> 10000	473	234	> 10000		
CCc1c(F)ccc2cc(O)cc(-c3ncc4c(NCc5cc(C(=O)N(C)C)n([C@H]6C[C@@H](O)C6)n5)nc(OC[C@@]56CCCN5C[C@H](F)C6)nc4c3F)c12 [Example 681, 3-(((7-(8-ethyl-7-fluoro-3-hydroxynaphthalen-1-yl)-8-fluoro-2-(((2R,7aS)-2-fluorohexahydro-1H-pyrrolizin-7a-yl)methoxy)pyrido[4,3-d]pyrimidin-4-yl)amino)methyl)-1-(cis-3-hydroxycyclobutyl)-N,N-dimethyl-1H-pyrazole-5-carboxamide]	51	> 10000	497	167	> 10000		
